Assay results as given in patent US20200038355A1, “ANTIOXIDANTS FOR USE IN OPHTHALMIC SURGERY” (Case Western Reserve University, priority 2017, published 2020).
Entries after “also recorded” stand apart in the source; their conditions may differ.

Columns and labels:
HLE-B3 cells = assay: EMT marker / Wnt-β-catenin immunoblot in human lens epithelial cell line HLE-B3; assay type: cell-based; conditions: for αSMA production after BSO stimulation: HLE-B3 cells co-treated with 10 mM NAC or 0.5 mM GSH-EE and 500 μM BSO, 24 hr; for TGFβ2-mediated αSMA production: HLE-B3 cells, 10 mM NAC or 0.5 mM GSH-EE co-incubated with 1 ng/ml TGFβ2, 24 hr; for BSO-increased Ser9 phosphorylation of GSK-3β / BSO-increased β-catenin expression: cells co-treated with 0.5 mM GSH-EE or 10 mM NAC, BSO 24 hr
Experimental: Cell Culture—Human lens epithelial cells (HLE-B3) were grown in DMEM medium with 10% fetal bovine serum (FBS), 2 mM glutamine and 50 unit/ml penicillin streptomycin (ThermoFisher, Waltham, Mass.) at 37° C. in a humidified 5% CO2 incubator. For primary porcine lens epithelial cell culture, pig eyes were collected at a local slaughterhouse within two hours of postmortem time, placed on ice and transported to the lab (about 1 hr) for immediate processing. First, the isolated lens was incubated with 2 ml of 0.25% trypsin at 37° C. for 2 min to remove any attached non-lens cells. Then, after a brief rinse with HBSS, the lens capsule was isolated and rinsed three times with HBSS before incubation with 2 ml of 0.5% trypsin for 5 min. 5 ml of complete DMEM medium was added and tissue was disrupted by pipetting up and down 10-15 times with a pipette fitted with a 1000 μl tip. The tissue homogenate was then passed through a 100 μm cell strainer. The cells were collected by low speed centrifugation at 150×g and placed in a 35 mm laminin-coated tissue culture dish with DMEM medium supplied with 10% FBS, 2 mM glutamine and 50 unit/ml penicillin streptomycin (ThernoFisher). The cells were cultured at 37° C. in a humidified incubator with 5% CO2.
(§1) Cells were placed 24 hr before the treatment and fresh medium was replaced immediately before the treatment. The indicated concentrations of BSO, DMF, NAC, GSH-EE or TGFβ2 were added to fresh medium and incubated at various time intervals as indicated. After treatment time, the cells were harvested after three washes with ice-cold PBS and subjected to immunoblot or other assays as described below. For whole lens culture, the serum-free medium with or without BSO, NAC, GSH-EE or TGFβ2 was incubated immediately after isolation for 48 hr and the whole lens or lens capsule was collected for further analysis. For lens explant culture, 48 hr after explant culture, various stimulates were used in fresh serum-free medium for an additional 48 hr, and the explant was fixed with 10% formaldehyde for 10 min before immunofluorescence stain, as described below.
The cells, whole lens, lens capsule, and lens fibers were collected and lysed in lysis buffer containing 20 mM Tris pH 7.5, 1 mM EDTA, 1 mM EGTA, 150 mM NaCl, 1% Triton X-100, 2.5 mM sodium pyrophosphate, 1 mM bα-Glycerolphosphate, 1 mM Na3VO4, 1 mg/ml Leupeptin, 1 mM PMSF on ice for 10 min. The protein concentration from the supernatant was determined by protein BCA assay (ThermoFisher). The protein extract was further processed for immunoblot analysis and probed for αSMA, collagen I, vimentin, phosphorylated Smad2, phosphorylated Smad3, phosphorylated GSK-3β and (β-catenin. All data were normalized to the level of GAPDH.

lens explant = assay: Mouse lens explant culture (ex vivo PCO mimetic model), αSMA immunofluorescence; assay type: cell-based; conditions: 10 mM NAC or 0.5 mM GSH-EE co-incubated with 1 ng/ml TGFβ2, 48 hr
Experimental: The isolated intact lens was rinsed three times with HBSS and then cultured in 12-well-plates with serum-free Medium 199 (ThermoFisher) with 50 unit/ml penicillin streptomycin at 37° C. in 5% CO2 incubator, as described above. The lens explant was cultured following the same procedure as described by a previous report. Tamiya et al., Exp Eye Res 71, 591-597 (2000). In brief, the mouse lens was placed in an anterior-toposterior orientation with the anterior attached to the culture dish. The lens posterior capsule was torn/cut by the tip of extra-fine forceps and then peeled towards anterior capsule and pinned on the plastic culture dish. The lens fiber mass was removed thereafter. The explant was cultured in serum-free MEM medium supplied with 50 unit/ml penicillin streptomycin at 37° C. in 5% CO2 incubator as described above. Only healthy growing explants were used for the described study and any unhealthy looking explants, such as folded explants or those with cell detachment, were discarded.
as §1, with “For lens explant culture, 48 hr after explant culture, various stimulates were used in fresh serum-free medium for an additional 48 hr, and the explant was fixed with 10% formaldehyde for 10 min before immunofluorescence stain, as described below.” left out
Confocal microscope—All confocal images were collected by a Leica SP8 gSTED confocal microscope equipped with two 3 Hyd SP GaAsP detectors and the AOBS system lasers include a 405 nm, Argon (458, 476, 488, 496, 514 nm), a tunable white light (470 to 670 nm), and a 592 nm STED depletion laser. For proper comparison, each channel of fluorescence was adjusted to the highest sensitivity/intensity but without over saturation from samples with the strongest signal. […]

For CCOC(=O)CNC(=O)[C@H](CS)NC(=O)CC[C@H](N)C(=O)O [GSH-EE, glutathione ethyl ester], the “αSMA production after BSO stimulation” value (HLE-B3 cells) was “alleviated; also recorded: partially, but significantly, block”, the “TGFβ2-mediated αSMA production” value (HLE-B3 cells) was “alleviated; also recorded: significantly alleviate” and the “BSO-increased Ser9 phosphorylation of GSK-3β” value (HLE-B3 cells) was “alleviated”. For the same molecule, the “BSO-increased β-catenin expression” value (HLE-B3 cells) was “attenuate; also recorded: alleviated” and the “TGFβ2-induced αSMA elevation in lens explant” value (lens explant) was “partially, but significantly, attenuated”.
For CC(=O)N[C@@H](CS)C(=O)O [NAC, N-acetyl cysteine], the “αSMA production after BSO stimulation” value (HLE-B3 cells) was “alleviated; also recorded: completely abolish”, the “TGFβ2-mediated αSMA production” value (HLE-B3 cells) was “alleviated; also recorded: completely block” and the “inhibitory effect on EMT process compared with GSH-EE” value (HLE-B3 cells; cell culture) was “much higher inhibitory effect than GSH-EE”. For the same molecule, the “BSO-increased Ser9 phosphorylation of GSK-3β” value (HLE-B3 cells) was “attenuate; also recorded: alleviated; also recorded: completely abolished”, the “BSO-increased β-catenin expression” value (HLE-B3 cells) was “alleviated” and the “TGFβ2-induced αSMA elevation in lens explant” value (lens explant) was “attenuated; also recorded: completely alleviated”.
